Results taken from patent US11684571B2, “Methods of treating eosinophilic esophagitis” (Ellodi Pharmaceuticals, L.P., priority 2016, dated 2023).

What was measured:
[1] = in vivo
Method: Incidence of treatment-emergent Adverse Events (AEs), AEs leading to withdrawal, and Serious Adverse Events (SAEs) grouped by system organ class (SOC) were calculated as needed. Clinically significant abnormal values for clinical laboratory, AM cortisol (≤138 nmol/L), urinalysis, vital signs, and electrocardiogram (ECG) findings were measured as needed.
A total of 24 subjects were enrolled and randomized to one of six sequences to receive each of the three treatments over the three periods with a 7-day washout between doses.
C. […] These subjects continued fasting for at least 4 hours post-dose. • Subjects on the “Fed” treatment (Treatment B) began a high-fat breakfast 30 minutes after an overnight fast of at least 10 hours. […] Subjects were administered 6.0 mg of ATP-1011 immediately prior to bedtime (4 hours following the standard meal).
Randomization (Day 1): Subjects were randomized to one of six sequences (See Table 15) to receive a single dose of each treatment over three periods, with a 7-day washout between doses.
Treatment Periods: For each period, subjects were in-patients for 5 days (Days 0-4, Days 7-11, Days 14-18) with PK samples collected over 72 hours following each dose. Subjects were checked-in to the CRU the evening prior to each dosing (Day 0, 7, and 14) and received treatment according to the sequence on which they were randomized on Day 1. […] All meals (AM and 4 hours prior to bedtime) were standardized for all subjects and all periods. Subjects completed these meals within 30 minutes. […] Subjects dosed HS followed the same PK schedule with PK samples scheduled relative to the bedtime dose.
Pharmacokinetics: Derived plasma-PK-parameter descriptive statistics were summarized by treatment. […] Additional comparisons were assessed between HS dosing and Fed and Fasted administration.
The following PK parameters were estimated by noncompartmental methods from plasma samples. Below limit of quantitation concentrations were treated as zero for all PK analyses. All deviations from the scheduled sampling time of 2 minutes or more were taken into consideration for evaluation of the PK parameters.
The trapezoidal rule was used to estimate the area under the curve (linear trapezoidal linear interpolation) and the terminal phase were estimated by maximizing the coefficient of determination estimated from the log-linear regression model. However, disposition parameters were not estimated for individual concentration-time profiles where the terminal log-linear phase cannot be reliably characterized.
Food Effect Analysis: The 90% confidence interval for the exponential of the difference in LSmeans between B (fed) and A (fasted) was calculated for the ln-transformed parameters (Test to Reference ratio of geometric LSmeans).
HS vs Fasted Analysis: The 90% confidence interval for the exponential of the difference in LSmeans between C (HS) and A (fasted) was calculated for the ln-transformed parameters (Test to Reference ratio of geometric LSmeans).
HS vs Fed Analysis: The 90% confidence interval for the exponential of the difference in LSmeans between C (HS) and B (fed) was calculated for the ln-transformed parameters (Test to Reference ratio of geometric LSmeans).
Treatments Administered: Study drug was administered by qualified study staff only in accordance with the procedures described in this protocol. […] All subjects were instructed to take the study drug tablet orally without water or other liquids. […]

[2] = Previous PK studies of APT-1011 (food effect, QD vs BID); type: in vivo, human; conditions: single-dose administration
[3] = oral; cited from earlier work

AUC0-24, geometric LSmean ([1]; human, 6 mg): 0.367351 ng·h/mL
AUCinf, geometric LSmean ([1]; human, 6 mg): 0.915302 ng·h/mL
AUClast, geometric LSmean ([1]; human, 6 mg): 0.789234 ng·h/mL
Cmax, geometric LSmean ([1]; human, 6 mg): 0.0313 ng/mL
maximum peak exposure, lower than morning-fast [1]: 19%
between-subject variability (CV % Geo mean) of FP AUC(0-24h) [2]: > 55%
SMILES: CCC(=O)O[C@]1(C(=O)SCF)[C@H](C)C[C@H]2[C@@H]3C[C@H](F)C4=CC(=O)C=C[C@]4(C)[C@@]3(F)[C@@H](O)C[C@@]21C [FP, Fluticasone propionate]
expected systemic bioavailability [3]: ~1%
